Values quoted from earlier work in patent US20260225982A1, “NEW METHOD FOR OZONOLYSIS AND REDUCTIVE QUENCHING OF OZONIDES” (P2 SCIENCE, INC., priority 2023, published 2026).

Assays:
[1] = species and route not given; given in comparison with oral rat LD50 of glyoxal

O=CC=O [Glyoxal]
oral rat LD50 (rat; oral): 3300 mg/kg

O=CC(=O)O [Glyoxylic acid]
rat LD50 (rat; in vivo): 2500 mg/kg

[Cl-].[Na+] [table salt]
LD50 [1]: 3000 mg/kg
